From US20200255492A1, “LEPTIN PEPTIDES AND THEIR USE FOR TREATING NEUROLOGICAL DISORDERS” (UNIVERSITY OF DUNDEE, priority 2017, published 2020)

Key:
[1] = tested on: juvenile hippocampal slices (P13-21); experiment: Primed burst stimulation: conversion of STP into persistent increase in synaptic transmission (fEPSP); type: cell-based, Sprague Dawley rats; conditions: 50 nM, at 40 min
Protocol: (§1) Parasagittal hippocampal slices (300 μm) were prepared from either P13-21 or 12-24-week-old male Sprague Dawley rats as previously (Moult et al. 2010). Brains were rapidly removed and placed in ice-cold artificial CSF (aCSF; bubbled with 95% O2 and 5% CO2) containing the following (in mm): 124 NaCl, 3 KCl, 26 NaHCO3, 1.25 NaH2PO4, 2 CaCl2, 1 MgSO4, and 10 d-glucose. Once prepared, parasagittal slices were allowed to recover at room temperature in oxygenated aCSF for 1 h before use. Slices were transferred to a submerged chamber maintained at room temperature and perfused with artificial cerebrospinal fluid at 2 ml min^−1. Standard extracellular recordings were used to monitor evoked field excitatory postsynaptic potentials (fEPSP) from stratum radiatum. The Schaffer collateral-commissural pathway was stimulated (constant voltage; 0.1 ms) at 0.033 Hz, using a stimulus intensity that evoked a peak amplitude ˜50% of the maximum. Synaptic potentials were low pass filtered at 2 kHz and digitally sampled at 10 kHz. The fEPSP slope was measured and expressed relative to baseline. Synaptic records are the average of 4 consecutive responses and stimulus artefacts are blanked for clarity. Recordings were made using an Axopatch 200B amplifier and analyzed using LTP v2.4 software. In synaptic plasticity studies, the degree of potentiation was calculated 30-35 min after HFS and expressed as a percentage of baseline±standard error of mean (SEM).
It is known that NMDA receptors contribute little to basal excitatory synaptic transmission but synaptic activation of NMDA receptors is crucial for LTP induction at hippocampal synapses (Bliss and Collingridge 1993). Previous studies indicate that lep-tin enhances the magnitude of activity-dependent LTP in acute hippocampal slices (Oomura et al. 2006) and following direct administration into the hippocampus in vivo (Wayner et al. 2004). We have also shown that leptin facilitates NMDA receptor-dependent synaptic plasticity as leptin promotes conversion of short term potentiation (STP) to hippocampal LTP (Shanley et al. 2001). […]

[2] = tested on: adult hippocampal slices (12-24 weeks); experiment: Excitatory synaptic transmission (fEPSP) in adult hippocampal slices; type: cell-based, Sprague Dawley rats; conditions: 25 nM; 20 min; adult (12-24 weeks) slices
Protocol: as §1
We have shown that leptin regulation of excitatory synaptic transmission is age-dependent. Thus in contrast to its effects in juvenile tissue, leptin (25 nM) induces a novel form of LTP in adult hippocampus (Moult and Harvey 2011). In order to verify if the leptin fragments mirror leptin action in adult tissue, the effects of the leptin fragments were examined in hippocampal slices from adult (12-24 weeks) rats.

[3] = tested on: differentiated human neural cells (SH-SY5Y); experiment: LDH release assay (membrane leakage, cell death); type: cell-based; conditions: for reduction of LDH release in Aβ1-42 treated cells: n=5; for reduction of LDH release compared with CuCl2 alone: 5 μM CuCl2; for reduction of LDH release compared with Aβ1-42 alone, hexamer study: n=11
Protocol: The human neuroblastoma cell line, SH-SY5Y (ECACC, UK) was maintained in Dulbecco's Modified Eagle Medium supplemented with glucose ([…]) and 10% (v/v) cosmic calf serum (Fisher Scientific, UK) at 37° C. in a humidified atmosphere of 5% CO2, 95% air and allowed to reach 70-80% confluence before seeding. Cells (passage 10-18) were plated at 10 000 cells per well in 96 well tissue culture plates (Nunc, VWR, UK) and at a density of 2×10^5 cells in 35 mm dishes for protein extraction. To induce differentiation, cells were cultured in DMEM supplemented with glucose ([…]), 1% (v/v) cosmic calf serum and 10 μM retinoic acid for 5 days. Thereafter they were incubated in DMEM supplemented with glucose ([…]), serum replacement 2 (2%; Sigma, UK) and 18 μM 5-fluorodeoxyuridine to inhibit proliferation of undifferentiated cells. The 50% of the medium was changed every 2-3 days and pharmacological treatment was carried out 7 days after switching to this medium. Reagents used were (from Sigma UK unless stated) 0.1-10 nM human leptin and leptin (116-130); 0.1-10 nM leptin (22-56; Bachem; Switzerland); 10 nM leptin (116-121) leptin (117-122), leptin (124-129) or leptin (125-130; all Severn Biotech, UK); 5 μM copper chloride; […], 5 μM WP1066 or 50 nM wortmannin. All treatments were added to the culture at the same time and survival assays were carried out after 96 h treatment. Protein samples for signaling ELISA were extracted 3 h after exposure to the relevant reagents and for biomarker expression after 72 hours.
The concentration of lactate dehydrogenase (LDH) in the culture medium or the mitochondrial activity within cells was used to monitor the level of cell death, as previously (Oldreive and Doherty 2010). In certain experiments, a Crystal violet assay was used to assess total cell number. Cells were fixed in neutral buffered formalin and washed 3 times in PBS prior to staining with 0.01% crystal violet acetate for 5 min. Plates were washed 5-10 times in dH2O and cells solubilised in 100 μl dimethyl sulfoxide (DMSO) before reading the absorbance on a Biohit BP100 plate reader. For all assays, data is expressed as percentage relative to control, untreated wells to normalize for differences in plating density between individual experiments.
To determine whether leptin (116-130) has neuroprotective actions, the effects of leptin (116-130) on the viability of differentiated human neural cells (SH-SY5Y) was examined after exposure to either 5 μM CuCl2 or 10 μM Aβ1-42. Cells were treated with the toxin alone or with a range of concentrations (10-0.1 nM) of leptin or leptin (116-130). […] Thus like leptin, treatment with leptin (116-130) reduces neuronal death in response to AD-linked toxins in vitro.

leptin: the metabolic hormone leptin, whole (full length) leptin molecule; human leptin from Sigma in SH-SY5Y work
synaptic transmission after primed burst stimulation [1]: 155±6.1 % of baseline | synaptic transmission [2]: 188±13 % of baseline | reduction of LDH release in Aβ1-42 treated cells ([3]; 0.1 nM, 10 μM Aβ1-42): 31.8±13.2% | reduction of LDH release compared with CuCl2 alone ([3]; 10 nM): 39.5±2.73% | reduction of LDH release in Aβ1-42 treated cells ([3]; 10 nM, 10 μM Aβ1-42): 47.9±7.45% | reduction of LDH release compared with Aβ1-42 alone, hexamer study ([3]; 10 nM, 10 μM Aβ1-42): 25.3±2.5%

CSLPQT (listed as Mus musculus) [leptin (117-122)]
reduction of LDH release compared with Aβ1-42 alone, hexamer study ([3]; 10 nM, 10 μM Aβ1-42): 27.4±3.5%

SCSLPQ (listed as Mus musculus) [leptin (116-121)]
reduction of LDH release compared with Aβ1-42 alone, hexamer study ([3]; 10 nM, 10 μM Aβ1-42): 27.1±3.1%

leptin (22-56): leptin fragment amino acids 22-56 (Bachem), comparison fragment (VPIQKVQDDTKTLIKTIVTRINDISHTQSVSSKQK; UniProt P41159 22-56, looked up, fragment) [reference compound]
synaptic transmission after primed burst stimulation [1]: only STP was observed | synaptic transmission [2]: 99±2 % of baseline

SCSLPQTSGLQKPES (listed as Mus musculus) [leptin (116-130)]
synaptic transmission after primed burst stimulation [1]: 143±6.4 % of baseline | synaptic transmission [2]: 140±13 % of baseline | reduction of LDH release in Aβ1-42 treated cells ([3]; 0.1 nM, 10 μM Aβ1-42): 26.7±17.3% | reduction of LDH release compared with CuCl2 alone ([3]; 10 nM): 45.6±2.92% | reduction of LDH release in Aβ1-42 treated cells ([3]; 10 nM, 10 μM Aβ1-42): 46.6±9% | reduction of LDH release compared with Aβ1-42 alone, hexamer study ([3]; 10 nM, 10 μM Aβ1-42): 24.0 ± 2.2% | increase in LDH release with PI3-kinase inhibitor ([3]; leptin (116-130) and Aβ1-42-treated cells plus wortmannin (50 nM)): 26.9±9.8% | increase in LDH release with STAT3 inhibitor ([3]; leptin (116-130) and Aβ1-42-treated cultures plus WP1066 (5 μM)): 18.3±3.2%

Aβ1-42: amyloid beta 1-42, toxin used in the AD models [reference compound]
increase in LDH release, Aβ1-42 alone ([3]; 10 μM Aβ1-42): 26.7±4.4%
